“And” between values parts separate entries of the source, which are not always exact repeats. Identical values can stand only once. Like-named read-outs stand apart in the source and are kept apart here.
Key:
[1] = for Transport of total TST derivatives in lymph (% of dose): mesenteric lymph-duct cannulated female SD rats; for Fold increase (compared with control group dosed with TU): lymphatic transport of total TST derivatives; for Fold increase (compared with MPA dosed group): lymphatic transport of total MPA derivatives
Description: Lipid formulations containing the compound of interest were then administered to the animals, the lymph collected and drug concentrations in the lymph subsequently quantified.
Lipid-based formulations of the compounds of the invention or control compounds were prepared as previously described (Trevaskis, N. L. et al., Pharmaceutical Research, 2005, 22(11), 1863-1870). Briefly, approximately 2 mg of the compound (1 mg in the case of Compound 35 and Compound 1), 40 mg oleic acid and 25 mg Tween 80 were mixed in a glass vial until equilibrated (gentle heat (below 50° C.) may be applied for a short period).
[…] This was to eliminate the potential for the relatively high and variable levels of endogenous testosterone in male rats interfering with the quantification of exogenously dosed testosterone. Rats (240-320 g) were maintained on a standard diet and fasted overnight with free access to water prior to experiments. Anaesthetised rats were placed on a heated pad at 37° C. and cannulas were inserted into the duodenum (for formulation administration and rehydration), mesenteric lymph duct (for lymph collection) and carotid artery (for blood collection) as previously described (Edwards et al. Advanced Drug Delivery Reviews 2001, 50(1), 45-60). Post-surgery, rats were re-hydrated for 0.5 h via intraduodenal infusion of normal saline at 2.8 mL/h. The lipid formulations were infused into the duodenum at 2.8 mL/h for 2 h, after which the infusion was changed to 2.8 mL/h normal saline for the remainder of the experiment. Lymph was continuously collected for 6 to 8 h into pre-weighed Eppendorf tubes containing 10 μL of 1,000 IU/mL heparin. The collection tubes were changed hourly and lymph flow was measured gravimetrically. Aliquots of hourly lymph samples were stored at −80° C. prior to assay.
Drug concentration in lymph is expressed as total drug and includes free drug and drug associated with different glycerides. This is assayed by hydrolysis of lymph (to liberate drug from any re-esterified glycerides) prior to assessment of free drug.
FIG. 1 illustrates the cumulative lymphatic transport of total testosterone related derivatives (% of administered dose) versus time in anaesthetised mesenteric lymph duct cannulated female SD rats following intraduodenal infusion of formulations from 0 to 2 h. Each Formulation contained 2 mg of the exemplified compound or the control, testosterone undecanoate (TU), dispersed in 40 mg oleic acid, 25 mg Tween 80 and 5.6 ml PBS.

[2] = Pharmacokinetic study in rats, testosterone plasma concentrations after oral gavage; conditions: testosterone in plasma, oral gavage; for AUC0-24 h fold increase compared with TU group: SD female rats, dose-normalized; for Tmax / AUC0-24 h / Cmax: conscious carotid artery cannulated SD female rats; for AUC0-24 h / Cmax: normalized to 2 mg/kg equivalent testosterone dose
Description: In order to assess the oral bioavailability of the compounds of the invention, pharmacokinetic studies were conducted in rats and dogs. […] The rats were then allowed to regain consciousness and fasted overnight prior to the commencement of experiments with free access to water. […] The oral formulation of Compound 2 contained 3 mg of the compound, 20 mg oleic acid and 12.5 mg Tween 80 dispersed in 1 mL PBS. Blood samples were collected from the carotid artery cannula from 5 min prior to administration up to 24 h post-dosing and centrifuged at 5000 rpm for 5 min to separate plasma. […] Plasma samples were stored at −80° C. prior to assay by HPLC-MS-MS. In this case samples were assayed for free drug (i.e. non-glyceride associated drug) and were not hydrolysed prior to assay (as was the case with the lymph samples).
FIG. 12 illustrates dose-normalized testosterone plasma concentrations following oral gavage of formulations to conscious, carotid artery cannulated female SD rats. Formulations contained 1 mg of TU, or 2 mg of compounds of the invention containing testosterone dispersed in 40 mg oleic acid, 25 mg Tween 80 and 2 ml PBS. Doses are normalized to a 2 mg/kg equivalent dose of testosterone. Data are shown as mean±SEM for all groups (n=4 or 3 for each group). The embedded figure is the plot of the dose-normalized plasma AUC0-24h (nmol×h/L) of testosterone in the form of a bar graph.

[3] = In vitro hydrolysis by rat digestive fluid (bile and pancreatic fluid); format: in vitro ADME; conditions: 37° C., drug-loaded lipid formulation, up to 180 min
Description: In vitro hydrolysis of MPA related compounds was performed via incubation with rat digestive fluid. Rat digestive fluid was collected from anesthetized rats via cannulation of the common bile-pancreatic duct immediately prior to the entry of the duct into the duodenum (i.e. below the point of entry of pancreatic secretions). This allowed simultaneous collection of bile and pancreatic fluid. The digestive fluid was collected continuously for 2 h, during which time a blank lipid formulation (prepared as described in the rat lymphatic transport studies but without the addition of drug) was infused into the duodenum at a rate of 2.8 ml/h to mimic conditions following drug administration. Bile and pancreatic fluid was maintained at 37° C. and used within 0.5 h of collection for in vitro prodrug hydrolysis experiments. The hydrolysis experiments were conducted via incubation (at 37° C.) of 0.375 mL of rat digestive fluid with 0.625 ml of the drug-loaded lipid formulations (as described in the rat lymphatic transport studies). The volume ratio of digestive fluid to formulation mimicked the flow rate of bile and pancreatic fluid (˜1.5 mL/h) and the infusion rate of the intraduodenal formulations (2.8 mL/h) during the in vivo lymphatic transport studies. Aliquots of 10 μL (samples taken at 0, 2, 5, 10, 15, 30, 60, 90, 120, 180 min) were added to 990 μL of acetonitrile:water (4:1, v/v) to stop lipolysis, vortexed for 1 min and centrifuged at 4500 g for 5 min to precipitate proteins prior to analysis. The supernatant was analysed by HPLC-MS for residual compound concentrations, and the potential products of compound hydrolysis were analysed.
On incubation with digestive enzymes the monoglycerides forms of the prodrugs are formed very rapidly. The stability in simulated intestinal conditions is therefore better assessed by the stability of the monoglycerides form that is generated by the initial digestion process. The monoglycerides form must remain intact to be absorbed and re-esterified in the enterocyte prior to entry into the lymphatics. […]

[4] = Pharmacokinetic study in greyhound dogs, testosterone plasma concentrations after oral administration; format: in vivo; conditions: fed state
Description: For the dog studies, female greyhound dogs were held in a large animal research facility for at least 5 days prior to the commencement of studies. The dogs were allowed to acclimatise for at least 4 days prior to commencing the study. The dogs were fasted for 12 h up to 30 min prior to drug administration. For the fed state studies (n=4 for TU or Compound 13), dogs received 680 g of standard commercial dog food containing 5% fat min prior to drug administration. In the fasted study (n=1 for Compound 13), the dog remained fasted until after 4 h post-dose. Water was available ad libitum throughout the study for all dogs. On the study day, a 20 gauge intravenous catheter was inserted into a cephalic vein to allow blood sampling. The dogs were free to move around (not restrained) after cannulation. For the fed state studies, Andriol Testocaps (the commercial TU product) or Compound 13 was given to the dogs. Andriol Testocaps were supplied by Merck Sharp & Dohme (Australia) Pty Limited and were formulated as soft gelatin capsule containing a 12.0% (w/w) solution of TU in lauroglycol FCC/castor oil [40:60% (w/w)] with the individual capsule composition being 40 mg of TU, lauroglycol FCC, castor oil, gelatin, glycerol, and sunset yellow (E110). Compound 13 was prepared in a long-chain lipid based self-emulsifying drug delivery system (SEDDS) that consisted of 30.5% w/w soybean oil, 30.5% w/w Maisine 35-1, 31.6% w/w Cremophor EL and 7.4% w/w ethanol. Formulations were filled into hard gelatin capsules. Two capsules of Andriol Testocaps containing 80 mg TU or two capsules of Compound 13 containing a total dose of 90 mg Compound 13 dissolved in 2 g of the SEDDS formulation were administrated to the fed greyhound dog by placing the capsules as far posterior to the pharynx as possible, closing the mouth and rubbing the throat to stimulate swallowing. Subsequently 50 mL of water was administered orally via a syringe. Two capsules of Compound 13 formulation were also administrated to the fasted dogs for fasted state studies. After oral administration, blood samples (approx. 3 mL each) were taken via the cephalic vein cannula from 5 min prior to administration up to 10 hours post-dosing. The patency of the catheters was maintained by flushing with a small volume of heparinised saline (1-2 IU/mL) after each blood sample was withdrawn. Blood samples at 24 h were taken by venepuncture. Plasma was separated by centrifugation and aliquots of each plasma sample were transferred into eppendorf tubes and store at −80° C. prior to analysis by LC-MS-MS.

[5] = cited from earlier work
[6] = anaesthetised, intraduodenal infusion 0-2 h, cumulative over 8 h
[7] = female SD rats, intraduodenal infusion
[8] = anaesthetised, mesenteric lymph-duct cannulated male SD rats, intraduodenal infusion 0-2 h, cumulative over 8 h
[9] = male SD rats, intraduodenal infusion

Row | SMILES | Transport of total TST derivatives in lymph (% of dose) [1, 6] | lymphatic transport, fold higher than straight chain counterpart Compound 10 [1, 7] | Fold increase (compared with control group dosed with TU) [1, 7] | AUC0-24 h fold increase compared with TU group [2] | Tmax [2] | AUC0-24 h [2] | Cmax [2] | stability of the monoglyceride form during in vitro incubation with freshly collected rat bile and pancreatic fluid [3] | Transport of total MPA derivatives in lymph (% of dose) [1, 8] | Fold increase (compared with MPA dosed group) [1, 9] | Transport of total MPA derivatives in lymph (% of dose) ([1]; male SD rats, intraduodenal infusion, co-administration with 0.6 mg of JZL184 and 9 μg of orlistat) | AUC0-24 h fold increase compared with TU group ([4]; greyhound dogs, dose-normalized) | Cmax ([4]; oral capsules, conscious greyhound dogs, normalized to 2 mg/kg equivalent testosterone dose, TU as Andriol Testocaps, Compound 13 in SEDDS) | Tmax ([4]; oral capsules, greyhound dogs) | AUC0-24 h ([4]; oral capsules, greyhound dogs, normalized to 2 mg/kg equivalent testosterone dose) | bioavailability of testosterone after oral administration of the undecanoate ester [5]
1 | CCCCCCCCCCCCCCCC(=O)OCC(COC(=O)CCCCCCCCCCCCCCC)OC(=O)CC(C)CC(=O)O[C@H]1CC[C@H]2[C@@H]3CCC4=CC(=O)CC[C@]4(C)[C@H]3CC[C@]12C (some centres unmarked) [Compound 18] | 28.0 ± 3.4 % of dose | approximately 2 fold | 14.9 fold | 0.3 fold | 1.3 ± 0.2 h | 2.0 ± 0.1 nM·h | 1.8 ± 0.3 nM | significantly stabilised the monoglyceride intermediates |  |  |  |  |  |  |  | 
2 | CCCCCCCCCCCCCCCC(=O)OCC(COC(=O)CCCCCCCCCCCCCCC)OC(=O)CCCCOC(=O)CC/C(C)=C/Cc1c(O)c2c(c(C)c1OC)COC2=O [Compound 31] |  |  |  |  |  |  |  | relatively rapidly degraded | 8.2 % of dose and 8.2 ± 1.3 % of dose | 48.9 fold |  |  |  |  |  | 
3 | CCCCCCCCCCCCCCCC(=O)OCC(COC(=O)CCCCCCCCCCCCCCC)OC(=O)CCCCCOC(=O)CC/C(C)=C/Cc1c(O)c2c(c(C)c1OC)COC2=O [Compound 32] |  |  |  |  |  |  |  | relatively rapidly degraded | 9.6 % of dose and 9.6 ± 1.4 % of dose | 57.5 fold | 18.8 % of dose |  |  |  |  | 
4 | CCCCCCCCCCC(=O)O[C@H]1CC[C@H]2[C@@H]3CCC4=CC(=O)CC[C@]4(C)[C@H]3CC[C@]12C [TU, testosterone undecanoate, reference compound] | 1.9 ± 0.3 % of dose |  | 1.0 fold | 1.0 fold | 1.5 ± 0.0 h | 6.8 ± 0.4 nM·h | 5.6 ± 0.5 nM |  |  |  |  | 1 fold | 75.4 ± 12.8 nM | 1.8 ± 0.1 h | 141.1 ± 22.1 nM·h | < 5%
